Test systems include HCT-15 colon; HL-60(TB) leukemia; HS 578T breast; M14 melanoma; NCI-H522 lung; NCI/ADR-RES ovarian; OVCAR-8 ovarian; SK-MEL-28 melanoma; SK-MEL-5 melanoma; SK-OV-3 ovarian.
What all share (assay): NCI anticancer screen, dose series, 48 h

The values that follow come from PubChem BioAssay (NCI).

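In this assay, cells in 96-well plates receive the compound at five concentrations for 48 hours. Endpoints are linearly interpolated between the surrounding concentrations. TGI denotes the concentration required for complete inhibition of growth.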

Turning to `NCCCN1CCN(CCCNc2ccc3ncn4c5ccccc5c(=O)c2c34)CC1`, the TGI in the assay with HCT-15 colon was greater than 25 µM; in the assay on HL-60(TB) leukemia, 10.1 µM; in the assay on HS 578T breast it was 22.1 µM; in the assay with M14 melanoma, 8.05 µM; in the assay on NCI-H522 lung, 1.52 µM; with NCI/ADR-RES ovarian, greater than 25 µM. The TGI was 19.5 µM in the assay with OVCAR-8 ovarian, 19.6 µM in the assay with SK-MEL-28 melanoma, 4.38 µM in the assay with SK-MEL-5 melanoma and greater than 25 µM in the assay with SK-OV-3 ovarian.
As for `c1csc(-c2csc(-c3cccs3)c2)c1`, the TGI with HCT-15 colon, in the assay with HL-60(TB) leukemia, in the assay on HS 578T breast, in the assay with M14 melanoma, in the assay on NCI-H522 lung and in the assay with NCI/ADR-RES ovarian was greater than 100 µM throughout. Further, the TGI in the assay on OVCAR-8 ovarian was greater than 100 µM; with SK-MEL-28 melanoma it was greater than 100 µM; in the assay with SK-MEL-5 melanoma, 38.8 µM; in the assay on SK-OV-3 ovarian, greater than 100 µM.
Consider `Oc1cc(Br)cc2cc(Br)cnc12`, for which the TGI with HCT-15 colon is greater than 100 µM; with HL-60(TB) leukemia, 0.654 µM; with HS 578T breast, 63.8 µM; in the assay with M14 melanoma it was 29.2 µM; with NCI-H522 lung, 8.2 µM; in the assay on NCI/ADR-RES ovarian, greater than 100 µM. Further, the TGI with OVCAR-8 ovarian is greater than 100 µM; in the assay on SK-MEL-28 melanoma it was greater than 100 µM; with SK-MEL-5 melanoma, 31.7 µM; with SK-OV-3 ovarian, greater than 100 µM.
On to `Cc1cccc(/C=N/NC(=S)NC(C)(C)C)n1`, for which the TGI with HCT-15 colon, in the assay with HL-60(TB) leukemia, in the assay with HS 578T breast, with M14 melanoma, in the assay with NCI-H522 lung and with NCI/ADR-RES ovarian was greater than 100 µM each time. Further, the TGI in the assay on OVCAR-8 ovarian, in the assay on SK-MEL-28 melanoma, with SK-MEL-5 melanoma and in the assay with SK-OV-3 ovarian was greater than 100 µM each time.
As to `COc1ccc(C2=C(N)c3ccccc3C2=O)cc1`, the TGI in the assay with HCT-15 colon is greater than 100 µM; with HL-60(TB) leukemia it was greater than 100 µM; in the assay with HS 578T breast, 63.9 µM; in the assay on M14 melanoma, greater than 100 µM; in the assay with NCI-H522 lung, greater than 100 µM; in the assay on NCI/ADR-RES ovarian, greater than 100 µM. Moreover, the TGI in the assay on OVCAR-8 ovarian, in the assay with SK-MEL-28 melanoma, in the assay with SK-MEL-5 melanoma and in the assay on SK-OV-3 ovarian was greater than 100 µM each time.
`Cc1cc(=O)[nH]c(S(=O)(=O)NC(=S)Nc2ccc(Br)cc2)n1`: the TGI with HCT-15 colon was greater than 100 µM; with HL-60(TB) leukemia, greater than 100 µM; with HS 578T breast, greater than 100 µM; in the assay with M14 melanoma it was greater than 100 µM; with NCI-H522 lung it was 70 µM; with NCI/ADR-RES ovarian, greater than 100 µM. Besides, the TGI with OVCAR-8 ovarian, in the assay on SK-MEL-28 melanoma, in the assay on SK-MEL-5 melanoma and in the assay with SK-OV-3 ovarian was greater than 100 µM in each case.
For `Cn1c(=O)n2n(c1=O)C1C(=CC2)C2C=CC1n1c(=O)n(C)c(=O)n12` (stereo not given), the TGI in the assay on HCT-15 colon, in the assay on HL-60(TB) leukemia, in the assay on HS 578T breast, in the assay with M14 melanoma, with NCI-H522 lung and in the assay on NCI/ADR-RES ovarian was greater than 100 µM in each case. Also, the TGI in the assay with OVCAR-8 ovarian, in the assay with SK-MEL-28 melanoma, in the assay on SK-MEL-5 melanoma and with SK-OV-3 ovarian was greater than 100 µM in each case.
For the molecule `COc1cc(/C=C/C=C2\CC(C)C/C(=C\C=C\c3ccc(O)c(OC)c3)C2=O)ccc1O` (stereo not given), the TGI is greater than 100 µM with HCT-15 colon; 33.8 µM in the assay on HL-60(TB) leukemia; greater than 100 µM in the assay with HS 578T breast; 46.9 µM in the assay with M14 melanoma; 2.5 µM with NCI-H522 lung; 77.4 µM in the assay on NCI/ADR-RES ovarian. Also, the TGI in the assay on OVCAR-8 ovarian was determined as 30.9 µM; in the assay with SK-MEL-28 melanoma, 45.5 µM; in the assay on SK-MEL-5 melanoma, 37.6 µM; with SK-OV-3 ovarian, 18.2 µM.
Turning to `O=C(n1c(=O)n(-c2ccc([N+](=O)[O-])cc2)c(=O)n1C(=O)C(Cl)(Cl)Cl)C(Cl)(Cl)Cl`, the TGI in the assay with HCT-15 colon, with HL-60(TB) leukemia, in the assay on HS 578T breast, with M14 melanoma, in the assay on NCI-H522 lung and with NCI/ADR-RES ovarian was greater than 100 µM each time. The TGI with OVCAR-8 ovarian, in the assay with SK-MEL-28 melanoma, in the assay on SK-MEL-5 melanoma and with SK-OV-3 ovarian was greater than 100 µM each time.
With `Cc1cc(C(C)(C)C)c(OCCCN2CCOCC2)c(C(C)(C)C)c1`, the TGI in the assay with HCT-15 colon was found to be 32.7 µM; with HL-60(TB) leukemia, 29 µM; in the assay on HS 578T breast, 38.6 µM; in the assay with M14 melanoma, 31.7 µM; in the assay with NCI-H522 lung it was 33.2 µM; in the assay with NCI/ADR-RES ovarian, 32 µM. In addition, the TGI in the assay with OVCAR-8 ovarian was found to be 35.4 µM; with SK-MEL-28 melanoma it was 30.5 µM; in the assay with SK-MEL-5 melanoma, 30 µM; in the assay on SK-OV-3 ovarian it was 35.6 µM.
For `CCOC(=O)C1C2C1C1C(C(=O)OCC)C21` (stereo not given), the TGI in the assay on HCT-15 colon, with HL-60(TB) leukemia, in the assay on HS 578T breast, in the assay with M14 melanoma, with NCI-H522 lung and with NCI/ADR-RES ovarian was greater than 100 µM each time. Besides, the TGI in the assay with OVCAR-8 ovarian, in the assay with SK-MEL-28 melanoma, with SK-MEL-5 melanoma and with SK-OV-3 ovarian was greater than 100 µM in each case.
Consider `COc1cc(/C=C2\N=C(c3ccccc3)N(c3ccc(C(=O)c4ccccc4)cc3N3C(=O)/C(=C/c4cc(OC)c(OC)c(OC)c4)N=C3c3ccccc3)C2=O)cc(OC)c1OC`, for which the TGI in the assay with HCT-15 colon was found to be 39.2 µM; with HL-60(TB) leukemia, 15.5 µM; with HS 578T breast, 74.8 µM; with M14 melanoma, 33.4 µM; with NCI-H522 lung, 26.1 µM; in the assay with NCI/ADR-RES ovarian it was 34.1 µM. Besides, the TGI with OVCAR-8 ovarian turned out to be 73.2 µM; with SK-MEL-28 melanoma, 65.8 µM; in the assay with SK-MEL-5 melanoma, 21.2 µM; with SK-OV-3 ovarian, 55.4 µM.
`OCC(CO)CC1COc2ccccc2O1` (stereo not given): the TGI with HCT-15 colon, in the assay with HL-60(TB) leukemia, with HS 578T breast, in the assay on M14 melanoma, with NCI-H522 lung and in the assay on NCI/ADR-RES ovarian was greater than 10 µM each time. The TGI with OVCAR-8 ovarian, in the assay with SK-MEL-28 melanoma, with SK-MEL-5 melanoma and in the assay with SK-OV-3 ovarian was greater than 10 µM each time.
